Test results: the OligoGym collection
After the bases stand the sugars from the 5' end (letter, count) and the backbone: PS all phosphorothioate, else s phosphorothioate and o phosphodiester by linkage. Methylation of C is not given here. l = locked nucleic acid (LNA); d = 2'-deoxy (DNA)

Target: SNHG14
Details: ASO
[1] = Mouse Primary Neuronal Cell, 0.005 µM

Sequence | target mRNA inhibition (Human Neuronal Cell, 7.5 µM) | target mRNA inhibition (Human Neuronal Cell, 0.2 µM) | target mRNA inhibition (Human Neuronal Cell, 1 µM) | other results
GTTTATACCCTTTCCAAT (sugars l1 d1 l1 d13 l2, PS) | 56% |  |  | 
CCATTTATTTCCATTTATT (sugars ldldlddddddddldldll, PS) | 55% |  |  | 
CTGTTTATACCCTTTCCA (sugars l1 d15 l2, PS) | 47% |  |  | 
CAGATAACTCTAAACC (sugars l4 d10 l2, PS) |  | 22% | 16% | 
TATACCTTTCTTTAACCCTT (sugars l2 d3 l1 d12 l2, PS) | 43% |  |  | 
TTGATTCAATTCCCTTA (sugars l2 d10 l1 d2 l2, PS) | 69% |  |  | 
CTTACCAATAGTTACCT (sugars l3 d11 l3, PS) |  | 49% | 54% | 
AAATCTCAACTACCATTTTT (sugars lldddllddddddlddllll, PS) | 29% |  |  | 
CTTTTAACCAGAGTGGCATC (sugars l2 d16 l2, PS) | 57% |  |  | 
TTGATTCAATTCCCTTA (sugars l2 d11 l4, PS) |  | 60% | 69% | 
TCATCATATTGAACCA (sugars l3 d10 l3, PS) |  | 65% | 68% | 
GCACATTCTTTCTATAC (sugars ldldlddddddlddlll, PS) | 49% |  |  | 
GTTTCCATCTACTATTAA (sugars ldlllddddddddlddll, PS) | 49% |  |  | 
AAATTATTTATACACCATCA (sugars lllddllddddddlldddll, PS) | 64% |  |  | 
AAATTATTTATACACCATCA (sugars lldlldldddddddldddll, PS) | 71% |  |  | 
GCTTCATATTTCTCCA (sugars l2 d11 l3, PS) |  |  | 63% | 
CACCAGTATTTCTTCTT (sugars l4 d11 l2, PS) |  | 31% | 27% | 
ATCATTCTCAACAATTAAA (sugars l1 d1 l4 d6 l7, PS) | 13% |  |  | 
AATGCTCACACTAATT (sugars l4 d10 l2, PS) |  | 37% | 54% | 
TTATACACCATCATTAT (sugars l3 d11 l3, PS) |  | 47% | 52% | 
TCCTTTAGCATTTCTAT (sugars l3 d11 l3, PS) |  | 45% | 60% | 
TTTTAACCAGAGTGGC (sugars l1 d11 l4, PS) | 53% |  |  | 
ACATCTCATACTTGCT (sugars l2 d12 l2, PS) |  | -13% | -7% | target mRNA inhibition (Human Neuronal Cell, 5 µM): 4%; target mRNA inhibition [1]: 93.9%

Sequence | target mRNA inhibition (Human Neuronal Cell, 7.5 µM) | target mRNA inhibition (Human Neuronal Cell, 0.2 µM) | target mRNA inhibition (Human Neuronal Cell, 1 µM) | other results
AACTGTTTATACCCTTT (sugars l4 d11 l2, PS) |  | 51% | 55% | 
ATATTGATTCAATTCCC (sugars l2 d9 l2 d1 l3, PS) | 66% |  |  | 
ACATGTCCCTTTATAT (sugars l3 d10 l3, PS) |  | 1% | -13% | target mRNA inhibition (Human Neuronal Cell, 5 µM): 6%; target mRNA inhibition [1]: 88.2%
CAGGCAGATAACCTCCAA (sugars l3 d12 l3, PS) |  | 12% | 20% | target mRNA inhibition (Human Neuronal Cell, 5 µM): 18%
TTGATTCAATTCCCTTA (sugars lldddddddddldldll, PS) | 61% |  |  | 
GTTTCCATCTACTATTAA (sugars ldldllddddddddddll, PS) | 58% |  |  | 
CCAAGATAATCATCAT (sugars l3 d10 l3, PS) |  | 41% | 42% | 
CTTTCCAATGAATCTA (sugars l2 d10 l4, PS) |  | 39% | 55% | 
CTTTTAACCAGAGTGGC (sugars l4 d11 l2, PS) | 62% |  |  | 
TTATAGCCATTCTATCT (sugars ldlllddddddldddll, PS) | 44% |  |  | 
AATTATTTATACACCAT (sugars l2 d11 l4, PS) |  | 2% | 32% | 
TTATAGCCATTCTATCT (sugars l2 d9 l1 d2 l3, PS) | 53% |  |  | 
TCCATGCTACATAAAC (sugars l4 d10 l2, PS) |  | 52% | 56% | 
CCATTTATTTCCATTTATT (sugars llddlddddddddldddll, PS) | 61% |  |  | 
TACACATCTTGTATAC (sugars l3 d10 l3, PS) |  | 14% | 36% | 
ATCTCATGACCACCTAA (sugars lddlldddddddldlll, PS) | 68% |  |  | 
TTTTTATACCTTTCTTTAAC (sugars lldllddddddddllddlll, PS) | 60% |  |  | 
TCATTGAACAACTCTTC (sugars l4 d11 l2, PS) |  | 31% | 17% | 
AGCAACATTATTAACCACC (sugars l2 d11 l1 d3 l2, PS) | 48% |  |  | 
TATGACTCCAATAATC (sugars l3 d10 l3, PS) |  | 30% | 44% | 
TTTATTAGATTACTCC (sugars l2 d10 l4, PS) |  | 24% | 17% | 
TAAAATTATTTATACACCA (sugars ldddllddddddllddlll, PS) | 55% |  |  | 
TTTTTTCTTACTATCTTCAA (sugars l1 d13 l1 d2 l3, PS) | 60% |  |  | 

Sequence | target mRNA inhibition (Human Neuronal Cell, 7.5 µM) | target mRNA inhibition (Human Neuronal Cell, 0.2 µM) | target mRNA inhibition (Human Neuronal Cell, 1 µM) | other results
TCCATTTATTTCCATTTATT (sugars llddlddddddddldlddll, PS) | 59% |  |  | 
AAAATTATTTATACACCATC (sugars ldldllddddddddlldlll, PS) | 59% |  |  | 
GCACATTCTTTCTATAC (sugars l3 d12 l2, PS) | 52% |  |  | 
ATCAATATCTTCTCAC (sugars l3 d10 l3, PS) |  | 54% | 62% | 
GCTTTTAACCAGAGTGGCAT (sugars l1 d16 l3, PS) | 53% |  |  | 
ATTTACACTTAATTATACTT (sugars llllddlddddddldddlll, PS) | 21% |  |  | 
AGACTAATCCTCTTAA (sugars l3 d10 l3, PS) |  | 38% | 52% | 
TATCTTTCCATTTATTTCC (sugars l1 d2 l2 d12 l2, PS) | 47% |  |  | 
TGTCTATTCTCTTCATT (sugars l4 d11 l2, PS) |  | 37% | 30% | 
TTCTGTATACACCATCC (sugars l3 d1 l1 d10 l2, PS) | 54% |  |  | 
TTATACCTTTCTTTAACC (sugars l4 d12 l2, PS) |  | 38% | 57% | 
CACACCTATTATATAAT (sugars l4 d11 l2, PS) |  | 2% | 18% | 
ATATTGATTCAATTCCC (sugars ldlddddddddlddlll, PS) | 67% |  |  | 
AGCTTTTAACCAGAGTGGCA (sugars l1 d17 l2, PS) | 64% |  |  | 
CTGTTTATACCCTTTCCA (sugars ldlddddddddddlddll, PS) | 55% |  |  | 
TCCTCTGCTTATAACTT (sugars l3 d12 l2, PS) |  | 53% | 62% | 
AGCTTTTAACCAGAGT (sugars l2 d10 l4, PS) | 81% |  |  | 
CTATTCCAGTTTAAAT (sugars l4 d10 l2, PS) |  | 33% | 44% | 
AACTCTCACTGTAACTT (sugars l3 d11 l3, PS) |  | 32% | 42% | 
GCTTTTAACCAGAGT (sugars l3 d9 l3, PS) | 73% |  |  | 
CAAAGATCATTCTCAAC (sugars l2 d2 l1 d6 l6, PS) | 18% |  |  | 
GTTTCCATCTACTATTAA (sugars ldddldddddddldllll, PS) | 62% |  |  | 
GATCATTCTCAACAATTAA (sugars lldllddddddddlldlll, PS) | 28% |  |  | 

Sequence | target mRNA inhibition (Human Neuronal Cell, 7.5 µM) | target mRNA inhibition (Human Neuronal Cell, 0.2 µM) | target mRNA inhibition (Human Neuronal Cell, 1 µM) | other results
AGTTCTACTATACTTTC (sugars l1 d10 l6, PS) | 47% |  |  | 
TATCAATATCTTCTCA (sugars l2 d10 l4, PS) |  | 46% | 61% | 
ATCTCATGACCACCTAA (sugars l1 d3 l1 d8 l4, PS) | 58% |  |  | 
TATTGATTCAATTCCCT (sugars l2 d11 l4, PS) |  | 58% | 71% | 
AAAATCTCAACTACCATTTT (sugars lldldlddddddddlldlll, PS) | 24% |  |  | 
TATTGATTCAATTCCCT (sugars lddllddddddddldll, PS) | 64% |  |  | 
CTGTATACACCATCCCA (sugars lddddddddddldldll, PS) | 49% |  |  | 
ATCTTTCCATTTATTTCCA (sugars lddddldddddddddldll, PS) | 31% |  |  | 
TTATAGCCATTCTATCT (sugars l1 d1 l1 d9 l5, PS) | 55% |  |  | 
TTATTTCCATTTATTTTCA (sugars ldldlddddddddllldll, PS) | 62% |  |  | 
CTTGTCAAATCATTTCT (sugars l4 d11 l2, PS) |  | 47% | 41% | 
TCAGAATAATTCTCCT (sugars l3 d10 l3, PS) |  | 49% | 57% | 
TATCTATTTAATTTACAC (sugars l3 d12 l3, PS) |  | 8% | 0% | 
TTATAGCCATTCTATCT (sugars ldlddddddddldllll, PS) | 49% |  |  | 
CACTTAGAATATCCCT (sugars l2 d10 l4, PS) |  | 43% | 35% | 
ACATGTCCCTTTATAT (sugars l2 d12 l2, PS) |  | -9% | -2% | target mRNA inhibition (Human Neuronal Cell, 5 µM): 15%
GTTACCTACATCTCATA (sugars l2 d13 l2, PS) |  | -14% | 11% | target mRNA inhibition (Human Neuronal Cell, 5 µM): 13%; target mRNA inhibition [1]: 81%
TTACACTTAATTATACTTCC (sugars ldllddldddddddldddll, PS) | 64% |  |  | 
ACTGTTTATACCCTTTC (sugars ldddlddddddlddlll, PS) | 53% |  |  | 
AAAATCTCAACTACCATTT (sugars l6 d6 l2 d2 l3, PS) | 23% |  |  | 
